Consider 33 compounds from patent US20240025906A1 (NEURON23, INC., priority 2022, published 2024).

Molecules are shown by their SMILES. Read-outs that look alike come from different tables or passages of the source.

The target of experiment [1] is T1, TYK2 JH2 (Homo sapiens, UniProt P29597).
T1 construct: purchased DiscoverX (KINOMEscan KdELECT service); host or cells: E. coli BL21-derived (T7 phage display) or HEK-293
In words: TYK2 JH2 binding assay (KINOMEscan KdELECT competitive binding). Conditions: TYK2 JH2 domain, KINOMEscan KdELECT (Assay A); read-out: Biochemical TYK2_JH2_Kd. The gist of the method:
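JH2-domain fragment, expressed as T7 phage tag in BL21-derived E. coli or DNA-tagged from HEK-293, competed with test compound against bead-immobilized biotinylated ligand in binding buffer (0.9% DMSO). 1 h shaking at room temperature; bound kinase eluted with 0.5 μM free ligand and quantified by qPCR. Kd from 11-point 3-fold dilutions.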

In experiment [2] the test system is JAK1/TYK2 pSTAT5 (Tyr694/699) in THP-1 cell line. The experiment can be described thus: IFNa-stimulated JAK1/TYK2 pSTAT5 (Tyr694/699) inhibition cellular assay, AlphaLISA. The class given is cell-based. Conditions: THP-1 cells, IFNa-stimulated, AlphaLISA (Assay B), read-out: Cellular THP1_IFNa-pSTATS_IC50. In outline: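 pSTAT5 (Tyr694/699) in lysates quantified by AlphaLISA (615 nm) after 30 min IFNa stimulation (100 ng/mL stock) of THP-1 cells. The cells, 2e4 per well in HBSS, had first been exposed 1 h at 37° C. to eight 6-fold compound dilutions, 10000 down to 0.04 nM final. IC50 fitted by 4PL regression, bottom 0, Hill slope −1.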

T1 sequence (P29597 589-875 limits assumed): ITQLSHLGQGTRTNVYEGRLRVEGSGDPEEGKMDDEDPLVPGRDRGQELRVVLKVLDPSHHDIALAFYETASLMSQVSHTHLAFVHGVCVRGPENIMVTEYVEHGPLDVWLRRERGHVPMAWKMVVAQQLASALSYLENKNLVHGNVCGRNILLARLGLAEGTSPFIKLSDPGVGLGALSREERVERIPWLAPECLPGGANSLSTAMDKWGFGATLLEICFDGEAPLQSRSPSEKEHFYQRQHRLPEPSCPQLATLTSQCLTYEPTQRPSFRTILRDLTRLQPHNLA

Take `CNc1ncc(C2=CCCCC2)c2cc(NC(=O)C3CC3)ncc12` [Example 69, N-(5-(cyclohex-1-en-1-yl)-8-(methylamino)-2,7-naphthyridin-3-yl)cyclopropanecarboxamide]: in experiment [1], the Kd is not above 100 nM. Also, in experiment [2] (Homo sapiens), the IC50 was more than 500 nM.
In the same order, the values of `CNc1ncc(C2CCCCC2)c2cc(NC(=O)C3CC3)ncc12` [Example 70, N-(5-cyclohexyl-8-(methylamino)-2,7-naphthyridin-3-yl)cyclopropanecarboxamide] are not above 100 nM and more than 500 nM.
In the same order, the values of `C=Cc1cnc(NC)c2cnc(NC(=O)C3CC3)cc12` [Example 71, N-(8-(methylamino)-5-vinyl-2,7-naphthyridin-3-yl)cyclopropanecarboxamide] are not above 100 nM and more than 500 nM.
The matching figures for `CCc1cnc(NC)c2cnc(NC(=O)C3CC3)cc12` [Example 72, N-(5-ethyl-8-(methylamino)-2,7-naphthyridin-3-yl)cyclopropanecarboxamide]: not above 100 nM and more than 500 nM.
As for `C=C(C)c1cnc(NC)c2cnc(NC(=O)C3CC3)cc12` [Example 73, N-(8-(methylamino)-5-(prop-1-en-2-yl)-2,7-naphthyridin-3-yl)cyclopropanecarboxamide], the Kd in experiment [1] was not above 100 nM. Also, the IC50 in experiment [2] (Homo sapiens) is more than 500 nM.
In the same order, the values of `CNc1ncc(C(C)C)c2cc(NC(=O)C3CC3)ncc12` [Example 74, N-(5-isopropyl-8-(methylamino)-2,7-naphthyridin-3-yl)cyclopropanecarboxamide] are not above 100 nM and more than 500 nM.
In the same order, the values of `CNc1ncc(C2=CCOC2)c2cc(NC(=O)C3CC3)ncc12` [Example 75, N-(5-(2,5-dihydrofuran-3-yl)-8-(methylamino)-2,7-naphthyridin-3-yl)cyclopropanecarboxamide] are not above 100 nM and more than 500 nM.
The matching figures for `CNc1ncc(C2CCOC2)c2cc(NC(=O)C3CC3)ncc12` (stereo not drawn) [Example 76, N-(8-(methylamino)-5-(tetrahydrofuran-3-yl)-2,7-naphthyridin-3-yl)cyclopropanecarboxamide]: not above 100 nM and more than 500 nM.
Regarding `CNc1ncc(C2=CCCOC2)c2cc(NC(=O)C3CC3)ncc12` [Example 77, N-(5-(5,6-dihydro-2H-pyran-3-yl)-8-(methylamino)-2,7-naphthyridin-3-yl)cyclopropanecarboxamide], the Kd in experiment [1] is not above 100 nM. Moreover, the IC50 in experiment [2] (Homo sapiens) was more than 500 nM.
Turning to `CNc1ncc(C2CCCOC2)c2cc(NC(=O)C3CC3)ncc12` (stereo not drawn) [Example 78, N-(8-(methylamino)-5-(tetrahydro-2H-pyran-3-yl)-2,7-naphthyridin-3-yl)cyclopropanecarboxamide], the Kd in experiment [1] was not above 100 nM. In addition, the IC50 in experiment [2] (Homo sapiens) is more than 500 nM.
The matching figures for `CNc1ncc(/C=C2\CCOC2)c2cc(NC(=O)C3CC3)ncc12` [Example 79, (E)-N-(5-((dihydrofuran-3(2H)-ylidene)methyl)-8-(methylamino)-2,7-naphthyridin-3-yl)cyclopropanecarboxamide]: not above 100 nM and more than 500 nM.
For the compound `CNc1ncc(CC2CCOC2)c2cc(NC(=O)C3CC3)ncc12` (stereo not drawn) [Example 80, N-(8-(methylamino)-5-((tetrahydrofuran-3-yl)methyl)-2,7-naphthyridin-3-yl)cyclopropanecarboxamide], in experiment [1], the Kd was not above 100 nM. Moreover, in experiment [2] (Homo sapiens), the IC50 is more than 500 nM.
In the same order, the values of `CNc1ncc(-c2csc(C)n2)c2cc(NC(=O)C3CC3)ncc12` [Example 81, N-(8-(methylamino)-5-(2-methylthiazol-4-yl)-2,7-naphthyridin-3-yl)cyclopropanecarboxamide] are not above 100 nM and more than 500 nM.
As to `CNc1ncc(-c2ccsn2)c2cc(NC(=O)C3CC3)ncc12` [Example 82, N-(5-(isothiazol-3-yl)-8-(methylamino)-2,7-naphthyridin-3-yl)cyclopropanecarboxamide], in experiment [1], the Kd was not above 100 nM. The IC50 in experiment [2] (Homo sapiens) was more than 500 nM.
In the same order, the values of `CNc1ncc(-c2cnsc2)c2cc(NC(=O)C3CC3)ncc12` [Example 83, N-(5-(isothiazol-4-yl)-8-(methylamino)-2,7-naphthyridin-3-yl)cyclopropanecarboxamide] are not above 100 nM and more than 500 nM.
In the same order, the values of `CNc1ncc(-c2ccns2)c2cc(NC(=O)C3CC3)ncc12` [Example 84, N-(5-(isothiazol-5-yl)-8-(methylamino)-2,7-naphthyridin-3-yl)cyclopropanecarboxamide] are not above 100 nM and more than 500 nM.
The matching figures for `CNc1ncc(C2=CCOC2=O)c2cc(NC(=O)C3CC3)ncc12` [Example 85, N-(8-(methylamino)-5-(2-oxo-2,5-dihydrofuran-3-yl)-2,7-naphthyridin-3-yl)cyclopropanecarboxamide]: 100 to 1000 nM and more than 500 nM.
For `CNc1ncc(C2CCOC2=O)c2cc(NC(=O)C3CC3)ncc12` (stereo not drawn) [Example 86, N-(8-(methylamino)-5-(2-oxotetrahydrofuran-3-yl)-2,7-naphthyridin-3-yl)cyclopropanecarboxamide], the Kd in experiment [1] is not above 100 nM. In experiment [2] (Homo sapiens), the IC50 is more than 500 nM.
The matching figures for `CNc1ncc(-c2ccn(CC#N)n2)c2cc(NC(=O)C3CC3)ncc12` [Example 87, N-(5-(1-(cyanomethyl)-1H-pyrazol-3-yl)-8-(methylamino)-2,7-naphthyridin-3-yl)cyclopropanecarboxamide]: not above 100 nM and more than 500 nM.
In the same order, the values of `CNc1ncc(CC(F)(F)F)c2cc(NC(=O)C3CC3)ncc12` [Example 88, N-(8-(methylamino)-5-(2,2,2-trifluoroethyl)-2,7-naphthyridin-3-yl)cyclopropanecarboxamide] are not above 100 nM and more than 500 nM.
In the same order, the values of `CNc1ncc(-c2ncccc2OC)c2cc(NC(C)=O)ncc12` [Example 89, N-(5-(3-methoxypyridin-2-yl)-8-(methylamino)-2,7-naphthyridin-3-yl)acetamide] are 100 to 1000 nM and more than 500 nM.
Take `CNc1ncc(-c2ccccc2)c2cc(NC(C)=O)ncc12` [Example 90, N-(8-(methylamino)-5-phenyl-2,7-naphthyridin-3-yl)acetamide]: in experiment [1], the Kd was not above 100 nM. Also, in experiment [2] (Homo sapiens), the IC50 is more than 500 nM.
For `CNc1ncc(-c2ncccc2OC)c2cc(Nc3ccccn3)ncc12` [Example 91, 4-(3-methoxypyridin-2-yl)-N^1-methyl-N^6-(pyridin-2-yl)-2,7-naphthyridine-1,6-diamine], the Kd in experiment [1] is 100 to 1000 nM. Further, the IC50 in experiment [2] (Homo sapiens) is more than 500 nM.
In the same order, the values of `CNc1ncc(-c2ccccc2)c2cc(Nc3ccccn3)ncc12` [Example 92, N^1-methyl-4-phenyl-N^6-(pyridin-2-yl)-2,7-naphthyridine-1,6-diamine] are not above 100 nM and more than 500 nM.
The matching figures for `CNc1ncc(-c2ccccc2)c2cc(NCC3CC3)ncc12` [Example 93, N^6-(cyclopropylmethyl)-N^1-methyl-4-phenyl-2,7-naphthyridine-1,6-diamine]: 1000 to 10000 nM and more than 500 nM.
In the case of `CNc1ncc(-c2ccccc2)c2cc(NCC(F)(F)F)ncc12` [Example 94, N^1-methyl-4-phenyl-N^6-(2,2,2-trifluoroethyl)-2,7-naphthyridine-1,6-diamine], in experiment [1], the Kd lay in the range of 100 to 1000 nM. In experiment [2] (Homo sapiens), the IC50 is more than 500 nM.
The matching figures for `O=C(Nc1cc2c(-c3ccccc3)cnc(Cl)c2cn1)C1CC1` [Example 95, N-(8-chloro-5-phenyl-2,7-naphthyridin-3-yl)cyclopropanecarboxamide]: 100 to 1000 nM and more than 500 nM.
Regarding `CCc1ncc(-c2ccccc2)c2cc(NC(=O)C3CC3)ncc12` [Example 96, N-(8-ethyl-5-phenyl-2,7-naphthyridin-3-yl)cyclopropanecarboxamide], in experiment [1], the Kd was not above 100 nM. Moreover, the IC50 in experiment [2] (Homo sapiens) was more than 500 nM.
`CNc1ncc(-c2ccccc2)c2cc(NCc3ccc(OC)cc3)ncc12` [Example 98, N^6-(4-methoxybenzyl)-N^1-methyl-4-phenyl-2,7-naphthyridine-1,6-diamine]: the Kd in experiment [1] fell in the range of 1000 to 10000 nM. Further, the IC50 in experiment [2] (Homo sapiens) was more than 500 nM.
In the same order, the values of `CNc1ncc(-c2ccccc2)c2cc(NC(=O)C3(C)CC3)ncc12` [Example 101, 1-methyl-N-(8-(methylamino)-5-phenyl-2,7-naphthyridin-3-yl)cyclopropane-1-carboxamide] are not above 100 nM and more than 500 nM.
With `CNc1ncc(-c2ccccc2)c2cc(NC(=O)C3CC3F)ncc12` (stereo not drawn) [Example 103, 2-fluoro-N-(8-(methylamino)-5-phenyl-2,7-naphthyridin-3-yl)cyclopropane-1-carboxamide], the Kd in experiment [1] was not above 100 nM. For the same compound, the IC50 in experiment [2] (Homo sapiens) was more than 500 nM.
`CNc1ncc(-c2ccccc2)c2cc(NC(=O)C3CC3F)ncc12` (stereo not drawn) [Example 104, 2-fluoro-N-(8-(methylamino)-5-phenyl-2,7-naphthyridin-3-yl)cyclopropane-1-carboxamide]: the Kd in experiment [1] is not above 100 nM. Moreover, the IC50 in experiment [2] was more than 500 nM.
For the compound `CNc1ncc(-c2ccccc2)c2cc(NC(=O)C3CC3(F)F)ncc12` (stereo not drawn) [Example 105, 2,2-difluoro-N-(8-(methylamino)-5-phenyl-2,7-naphthyridin-3-yl)cyclopropane-1-carboxamide], in experiment [1], the Kd is not above 100 nM. The IC50 in experiment [2] (Homo sapiens) is more than 500 nM.
